Data reported in patent US11319299B2, “Substituted carboxamides as inhibitors of WDR5 protein-protein binding” (PROPELLON THERAPEUTICS INC., priority 2016, dated 2022).

Target: WDR5 (Homo sapiens (Human), UniProt P61964)
Experiment: Surface Plasmon Resonance (SPR) assay, KD and residence time
Type: binding
Conditions: surface plasmon resonance (SPR) assay; read-out: WDR5 binding affinity (KD)

Row | Kd [nM] | Structure (SMILES)
1 | 0.439 | C[C@@H]1CN(c2cc(F)c(-c3ccc(N4CCOCC4)c(F)c3)cc2NC(=O)c2c[nH]c(=O)cc2C(F)(F)F)C[C@H](C)N1C [Example 124, N-[4-fluoro-5-(3-fluoro-4-morpholin-4-ylphenyl)-2-[(3R,5S)-3,4,5-trimethylpiperazin-1-yl]phenyl]-6-oxo-4-(trifluoromethyl)-1H-pyridine-3-carboxamide]
2 | 10.9 | C[C@@H]1CN(c2cc(F)c(-c3cccc(OCC4CC4)c3)cc2NC(=O)c2c[nH]c(=O)cc2C(F)(F)F)C[C@H](C)N1C [Example 125, N-[5-[3-(cyclopropylmethoxy)phenyl]-4-fluoro-2-[(3R,5S)-3,4,5-trimethylpiperazin-1-yl]phenyl]-6-oxo-4-(trifluoromethyl)-1H-pyridine-3-carboxamide]
3 | 3500 | C[C@@H]1CN(c2cc(F)c(-c3cnc(N4CCOCC4)nc3)cc2NC(=O)c2cccc(N(C)C)c2)C[C@H](C)N1C [Example 126, 3-(dimethylamino)-N-[4-fluoro-5-(2-morpholin-4-ylpyrimidin-5-yl)-2-[(3R,5S)-3,4,5-trimethylpiperazin-1-yl]phenyl]benzamide]
4 | > 200 | C[C@@H]1CN(c2cc(F)c(-c3cnc(N4CCOCC4)nc3)cc2NC(=O)c2cocn2)C[C@H](C)N1C [Example 127, N-[4-fluoro-5-(2-morpholin-4-ylpyrimidin-5-yl)-2-[(3R,5S)-3,4,5-trimethylpiperazin-1-yl]phenyl]-1,3-oxazole-4-carboxamide]
5 | 0.656 | CC(C)Oc1ncc(-c2cc(NC(=O)c3c[nH]c(=O)cc3C(F)(F)F)c(N3C[C@@H](C)N(C)[C@@H](C)C3)cc2F)cn1 [Example 130, N-[4-fluoro-5-(2-propan-2-yloxypyrimidin-5-yl)-2-[(3R,5S)-3,4,5-trimethylpiperazin-1-yl]phenyl]-6-oxo-4-(trifluoromethyl)-1H-pyridine-3-carboxamide]
6 | 2.43 | C[C@@H]1CN(c2cc(F)c(-c3ccc(C#N)nc3)cc2NC(=O)c2c[nH]c(=O)cc2C(F)(F)F)C[C@H](C)N1C [Example 131, N-[5-(6-cyanopyridin-3-yl)-4-fluoro-2-[(3R,5S)-3,4,5-trimethylpiperazin-1-yl]phenyl]-6-oxo-4-(trifluoromethyl)-1H-pyridine-3-carboxamide]
7 | 1.4 | Cc1cc(-c2cc(NC(=O)c3c[nH]c(=O)cc3C(F)(F)F)c(N3C[C@@H](C)N(C)[C@@H](C)C3)cc2F)cnc1C#N [Example 132, N-[5-(6-cyano-5-methylpyridin-3-yl)-4-fluoro-2-[(3R,5S)-3,4,5-trimethylpiperazin-1-yl]phenyl]-6-oxo-4-(trifluoromethyl)-1H-pyridine-3-carboxamide]
8 | 1.33 | C[C@@H]1CN(c2cc(F)c(-c3ccnc(C#N)c3)cc2NC(=O)c2c[nH]c(=O)cc2C(F)(F)F)C[C@H](C)N1C [Example 133, N-[5-(2-cyanopyridin-4-yl)-4-fluoro-2-[(3R,5S)-3,4,5-trimethylpiperazin-1-yl]phenyl]-6-oxo-4-(trifluoromethyl)-1H-pyridine-3-carboxamide]
9 | 1.01 | COc1cc(-c2cc(NC(=O)c3c[nH]c(=O)cc3C(F)(F)F)c(N3C[C@@H](C)N(C)[C@@H](C)C3)cc2F)cc(C(F)(F)F)n1 [Example 134, N-[4-fluoro-5-[2-methoxy-6-(trifluoromethyl)pyridin-4-yl]-2-[(3R,5S)-3,4,5-trimethylpiperazin-1-yl]phenyl]-6-oxo-4-(trifluoromethyl)-1H-pyridine-3-carboxamide]
10 | 2.81 | COc1cc(-c2cc(NC(=O)c3c[nH]c(=O)cc3C(F)(F)F)c(N3C[C@@H](C)N(C)[C@@H](C)C3)cc2F)cc(C)n1 [Example 135, N-[4-fluoro-5-(2-methoxy-6-methylpyridin-4-yl)-2-[(3R,5S)-3,4,5-trimethylpiperazin-1-yl]phenyl]-6-oxo-4-(trifluoromethyl)-1H-pyridine-3-carboxamide]
11 | 0.463 | COc1ncc(-c2cc(NC(=O)c3c[nH]c(=O)cc3C(F)(F)F)c(N3C[C@@H](C)N(C)[C@@H](C)C3)cc2F)cc1C(F)(F)F [Example 136, N-[4-fluoro-5-[6-methoxy-5-(trifluoromethyl)pyridin-3-yl]-2-[(3R,5S)-3,4,5-trimethylpiperazin-1-yl]phenyl]-6-oxo-4-(trifluoromethyl)-1H-pyridine-3-carboxamide]
12 | 19.7 | COc1cc(C#N)c(C(=O)Nc2cc(-c3cnc(N4CCOCC4)nc3)c(F)cc2N2C[C@@H](C)N(C)[C@@H](C)C2)cn1 [Example 137, 4-cyano-N-[4-fluoro-5-(2-morpholin-4-ylpyrimidin-5-yl)-2-[(3R,5S)-3,4,5-trimethylpiperazin-1-yl]phenyl]-6-methoxypyridine-3-carboxamide]
13 | 5.86 | C[C@@H]1CN(c2cc(F)c(-c3cnc(N4CCOCC4)nc3)cc2NC(=O)c2c(Cl)cccc2Cl)C[C@H](C)N1C [Example 139, 2,6-dichloro-N-[4-fluoro-5-(2-morpholin-4-ylpyrimidin-5-yl)-2-[(3R,5S)-3,4,5-trimethylpiperazin-1-yl]phenyl]benzamide]
14 | 18.8 | C[C@@H]1CN(c2cc(F)c(-c3cnc(N4CCOCC4)nc3)cc2NC(=O)c2cccc(Cl)c2F)C[C@H](C)N1C [Example 140, 3-chloro-2-fluoro-N-[4-fluoro-5-(2-morpholin-4-ylpyrimidin-5-yl)-2-[(3R,5S)-3,4,5-trimethylpiperazin-1-yl]phenyl]benzamide]
15 | 16.2 | C[C@@H]1CN(c2cc(F)c(-c3cnc(N4CCOCC4)nc3)cc2NC(=O)c2ccccc2C(F)(F)F)C[C@H](C)N1C [Example 141, N-[4-fluoro-5-(2-morpholin-4-ylpyrimidin-5-yl)-2-[(3R,5S)-3,4,5-trimethylpiperazin-1-yl]phenyl]-2-(trifluoromethyl)benzamide]
16 | 0.985 | C[C@@H]1CN(c2cc(F)c(-c3ccc(N(C)C)nc3)cc2NC(=O)c2c[nH]c(=O)cc2C(F)(F)F)C[C@H](C)N1C [Example 142, N-[5-[6-(dimethylamino)pyridin-3-yl]-4-fluoro-2-[(3R,5S)-3,4,5-trimethylpiperazin-1-yl]phenyl]-6-oxo-4-(trifluoromethyl)-1H-pyridine-3-carboxamide]
17 | 1.24 | C[C@@H]1CN(c2cc(F)c(C3=CCN(C(=O)OC(C)(C)C)CC3)cc2NC(=O)c2c[nH]c(=O)cc2C(F)(F)F)C[C@H](C)N1C [Example 143, tert-butyl 4-[2-fluoro-5-[[6-oxo-4-(trifluoromethyl)-1H-pyridine-3-carbonyl]amino]-4-[(3R,5S)-3,4,5-trimethylpiperazin-1-yl]phenyl]-3,6-dihydro-2H-pyridine-1-carboxylate]
18 | 6.06 | C[C@@H]1CN(c2cc(F)c(-c3ccc(C(F)(F)F)cc3)cc2NC(=O)c2c[nH]c(=O)cc2C(F)(F)F)C[C@H](C)N1C [Example 144, N-[4-fluoro-2-[(3R,5S)-3,4,5-trimethylpiperazin-1-yl]-5-[4-(trifluoromethyl)phenyl]phenyl]-6-oxo-4-(trifluoromethyl)-1H-pyridine-3-carboxamide]
19 | 6.83 | C[C@@H]1CN(c2cc(F)c(-c3ccc(OC(F)(F)F)cc3)cc2NC(=O)c2c[nH]c(=O)cc2C(F)(F)F)C[C@H](C)N1C [Example 145, N-[4-fluoro-2-[(3R,5S)-3,4,5-trimethylpiperazin-1-yl]-5-[4-(trifluoromethoxy)phenyl]phenyl]-6-oxo-4-(trifluoromethyl)-1H-pyridine-3-carboxamide]
20 | 6.02 | C[C@@H]1CN(c2cc(F)c(-c3ccccc3)cc2NC(=O)c2c[nH]c(=O)cc2C(F)(F)F)C[C@H](C)N1C [Example 146, N-[4-fluoro-5-phenyl-2-[(3R,5S)-3,4,5-trimethylpiperazin-1-yl]phenyl]-6-oxo-4-(trifluoromethyl)-1H-pyridine-3-carboxamide]
21 | 4.44 | C[C@@H]1CN(c2cc(F)c(-c3ccc(Cl)cc3)cc2NC(=O)c2c[nH]c(=O)cc2C(F)(F)F)C[C@H](C)N1C [Example 147, N-[5-(4-chlorophenyl)-4-fluoro-2-[(3R,5S)-3,4,5-trimethylpiperazin-1-yl]phenyl]-6-oxo-4-(trifluoromethyl)-1H-pyridine-3-carboxamide]
22 | 0.54 | COc1ccc(CN2CC=C(c3cc(NC(=O)c4c[nH]c(=O)cc4C(F)(F)F)c(N4C[C@@H](C)N(C)[C@@H](C)C4)cc3F)CC2)cc1 [Example 148, N-[4-fluoro-5-[1-[(4-methoxyphenyl)methyl]-3,6-dihydro-2H-pyridin-4-yl]-2-[(3R,5S)-3,4,5-trimethylpiperazin-1-yl]phenyl]-6-oxo-4-(trifluoromethyl)-1H-pyridine-3-carboxamide]
23 | 4.65 | Cc1cc(-c2cc(NC(=O)c3c[nH]c(=O)cc3C(F)(F)F)c(N3C[C@@H](C)N(C)[C@@H](C)C3)cc2F)cnn1 [Example 149, N-[4-fluoro-5-(6-methylpyridazin-4-yl)-2-[(3R,5S)-3,4,5-trimethylpiperazin-1-yl]phenyl]-6-oxo-4-(trifluoromethyl)-1H-pyridine-3-carboxamide]
24 | 9 | CC(C)CN1CC=C(c2cc(NC(=O)c3c[nH]c(=O)cc3C(F)(F)F)c(N3C[C@@H](C)N(C)[C@@H](C)C3)cc2F)CC1 [Example 150, N-[4-fluoro-5-[1-(2-methylpropyl)-3,6-dihydro-2H-pyridin-4-yl]-2-[(3R,5S)-3,4,5-trimethylpiperazin-1-yl]phenyl]-6-oxo-4-(trifluoromethyl)-1H-pyridine-3-carboxamide]
25 | 7.46 | C[C@@H]1CN(c2cc(F)c(C3=CCN(CC4CC4)CC3)cc2NC(=O)c2c[nH]c(=O)cc2C(F)(F)F)C[C@H](C)N1C [Example 151, N-[5-[1-(cyclopropylmethyl)-3,6-dihydro-2H-pyridin-4-yl]-4-fluoro-2-[(3R,5S)-3,4,5-trimethylpiperazin-1-yl]phenyl]-6-oxo-4-(trifluoromethyl)-1H-pyridine-3-carboxamide]
26 | 6.33 | C[C@@H]1CN(c2cc(F)c(C3=CCN(CCC(F)(F)F)CC3)cc2NC(=O)c2c[nH]c(=O)cc2C(F)(F)F)C[C@H](C)N1C [Example 152, N-[4-fluoro-2-[(3R,5S)-3,4,5-trimethylpiperazin-1-yl]-5-[1-(3,3,3-trifluoropropyl)-3,6-dihydro-2H-pyridin-4-yl]phenyl]-6-oxo-4-(trifluoromethyl)-1H-pyridine-3-carboxamide]
